Results taken from patent publication US20230072683A1, “PYRIDO-PYRIMIDIN DERIVATIVES AND PHARMACEUTICAL COMPOSITION, FOR USE IN PREVENTING OR TREATING PI3 KINASE RELATED DISEASES, COMPRISING SAME AS ACTIVE INGREDIENT” (BORYUNG PHARMACEUTICAL CO., LTD, priority 2019, published 2023).

What was measured:
DNA-PK(h) = DNA-PK(h) (Homo sapiens, UniProt P78527); assay: Evaluation of inhibitory activity against DNA-PK (HTRF kinase assay, GST-cMyc-p53 substrate); assay type: biochemical
How it was run: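 Human DNA-PK with 50 μM GST-cMyc-p53 substrate; reaction started with Mg/ATP, run 30 min at room temperature, stopped with EDTA. Phospho-Ser15 p53 detected by HTRF (Eu anti-phospho-Ser15, d2 anti-GST), signal = 10000×(Em 665/Em 620).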

[1] = target: PI3K-δ (PI3K(p1108/p857) (h)) (Homo sapiens, UniProt O00329); assay: Evaluation of inhibitory activity against PI3K-δ (HTRF kinase assay); assay type: biochemical
How it was run: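 HTRF read-out (665/620 nm ratio ×10000) used Eu-labelled anti-GST, GST-tagged GRP1 PH domain and streptavidin-allophycocyanin after EDTA/PIP3 stop.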

Chain of PI3K-δ (PI3K(p1108/p857) (h)) (O00329 whole entry, the tested form may be a part): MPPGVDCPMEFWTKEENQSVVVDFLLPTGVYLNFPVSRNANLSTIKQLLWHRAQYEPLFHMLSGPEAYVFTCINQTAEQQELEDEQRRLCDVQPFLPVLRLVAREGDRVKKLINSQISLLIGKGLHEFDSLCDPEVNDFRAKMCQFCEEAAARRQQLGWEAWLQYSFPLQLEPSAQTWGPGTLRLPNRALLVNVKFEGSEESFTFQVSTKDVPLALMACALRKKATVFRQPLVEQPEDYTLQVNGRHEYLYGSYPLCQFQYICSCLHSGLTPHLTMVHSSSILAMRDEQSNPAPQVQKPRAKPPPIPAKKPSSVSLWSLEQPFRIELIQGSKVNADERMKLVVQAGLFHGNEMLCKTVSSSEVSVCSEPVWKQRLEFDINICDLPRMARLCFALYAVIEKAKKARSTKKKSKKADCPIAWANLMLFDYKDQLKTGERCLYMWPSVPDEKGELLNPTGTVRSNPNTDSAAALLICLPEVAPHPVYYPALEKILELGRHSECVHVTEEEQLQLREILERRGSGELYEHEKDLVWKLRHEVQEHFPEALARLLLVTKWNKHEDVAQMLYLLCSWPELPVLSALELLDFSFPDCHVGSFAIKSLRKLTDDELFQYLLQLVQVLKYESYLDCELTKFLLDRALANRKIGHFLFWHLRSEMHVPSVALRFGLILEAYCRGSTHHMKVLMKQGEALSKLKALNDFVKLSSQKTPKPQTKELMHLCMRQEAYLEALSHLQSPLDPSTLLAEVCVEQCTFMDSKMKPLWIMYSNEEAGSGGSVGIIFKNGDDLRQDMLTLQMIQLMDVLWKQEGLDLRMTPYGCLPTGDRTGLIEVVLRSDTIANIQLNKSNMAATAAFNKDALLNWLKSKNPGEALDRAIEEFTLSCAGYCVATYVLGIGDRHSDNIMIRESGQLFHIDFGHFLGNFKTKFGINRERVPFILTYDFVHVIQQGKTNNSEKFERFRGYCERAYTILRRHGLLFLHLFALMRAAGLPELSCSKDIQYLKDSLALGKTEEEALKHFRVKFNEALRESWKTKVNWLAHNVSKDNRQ
Chain of PI3K-δ (PI3K(p1108/p857) (h)) (P27986 whole entry partner, the tested form may be a part): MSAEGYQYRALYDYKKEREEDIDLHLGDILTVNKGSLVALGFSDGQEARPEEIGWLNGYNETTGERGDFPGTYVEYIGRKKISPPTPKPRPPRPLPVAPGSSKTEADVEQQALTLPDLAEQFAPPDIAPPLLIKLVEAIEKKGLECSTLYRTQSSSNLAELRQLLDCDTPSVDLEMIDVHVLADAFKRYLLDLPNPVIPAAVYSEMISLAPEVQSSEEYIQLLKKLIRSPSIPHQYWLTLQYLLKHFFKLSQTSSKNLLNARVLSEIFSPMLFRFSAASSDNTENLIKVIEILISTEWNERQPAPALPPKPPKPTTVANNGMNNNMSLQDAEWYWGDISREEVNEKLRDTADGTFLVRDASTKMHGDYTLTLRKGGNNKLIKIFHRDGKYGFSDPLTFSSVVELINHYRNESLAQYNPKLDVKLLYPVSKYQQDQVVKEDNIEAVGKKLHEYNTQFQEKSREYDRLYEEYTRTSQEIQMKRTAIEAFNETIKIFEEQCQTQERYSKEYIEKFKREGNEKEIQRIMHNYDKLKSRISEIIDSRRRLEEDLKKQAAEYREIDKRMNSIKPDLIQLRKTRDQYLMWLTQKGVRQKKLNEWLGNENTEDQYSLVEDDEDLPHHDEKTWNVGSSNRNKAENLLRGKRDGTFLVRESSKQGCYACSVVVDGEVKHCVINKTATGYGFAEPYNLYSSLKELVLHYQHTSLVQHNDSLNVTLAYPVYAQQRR

inhibition at 0.01 µM (DNA-PK(h); compound concentration 0.01 μM, read-out: EXP_VALUE(% Inhibition) DNA-PK(h) 0.01 μM): 68%
inhibition at 0.1 µM (DNA-PK(h); compound concentration 0.1 μM, read-out: EXP_VALUE(% Inhibition) DNA-PK(h) 0.1 μM): 94%
inhibition at 0.01 µM ([1]; compound concentration 0.01 μM, read-out: EXP_VALUE(% Inhibition) PI3K-δ 0.01 μM): 90%
inhibition at 0.1 µM ([1]; compound concentration 0.1 μM, read-out: EXP_VALUE(% Inhibition) PI3K-δ 0.1 μM): 102%
SMILES: CC(C)Oc1ccc(-c2cccc3c(Cl)c([C@H](C)Nc4ncnc5[nH]ccc(=O)c45)n(-c4ccccc4)c(=O)c23)cn1 [Example 101, (S)-4-((1-(4-chloro-8-(6-isopropoxypyridin-3-yl)-1-oxo-2-phenyl-1,2-dihydroisoquinolin-3-yl)ethyl)amino)pyrido[2,3-d]pyrimidin-5(8H)-one]
